Test results from US20200024662A1, “METHODS FOR TREATING OPIOID ADDICTION” (ASSUREX HEALTH, INC., priority 2016, published 2020).

How the values were obtained:
[1] = test system: patients treated with Methadone in the START trial; assay: PK model (predicted exposure) binning vs Methadone completion; assay type: in vivo, human
Procedure: (§1) For the model analyses, models were developed that sort patients into one of three categories, Green (‘G’) Yellow (‘Y’) or Red (‘R’). Patients determined to be high risk for non-completion by the model are placed into the Red Bin. Patients at intermediate risk of non-completion are placed in the Yellow Bin, and for this study, Yellow Bin patients are treated the same as patients found to be at Low Risk of non-completion, or those who are placed in the Green Bin. Thus, the Green and Yellow bins are combined for analysis.
The PK model represents a physiologically based pharmacokinetic algorithm that combines combinatorial pharmacogenetics with a physiological algorithm for predicting medication exposure, as described elsewhere herein. Model assignments to G Y or R were based on the therapeutic ranges provided by the literature for methadone as shown in Table 15.
(§2) Samples from patients treated with Methadone in the START trial described in Example 1 above were used (N=352). […] Each model was tested as described below against Sample 1, Sample 2 and/or the Full Sample.
(§3) Pearson's product moment, Chi-square with Yates correction were calculated. Diagnostic tests, odds ratios, Pearson's product moment, Chi-square with Yates correction were calculated using MEDCALC and R version 3.3.1.

[2] = test system: patients treated with Methadone in the START trial; assay: PD Model 1 binning vs Methadone completion; assay type: in vivo, human
Procedure: as §1
PD Model 1: The completion percentage was calculated for each genotype. For each gene and genotype completion percentage, the means and standard deviations were calculated. For each genotype that was greater than or equal to one standard deviation away from the mean, towards higher completion, a score of 1 was given. For each genotype that was greater than or equal to one standard deviation away from the mean, towards lower completion, a score of −1 was given. All others received a score of 0. The patient's PD risk was calculated by summing the total genotype risk score. The individual risk scores were combined to create the SumRisk variable; a final score of −1 was converted to Green, a score of 0 was converted to Yellow, and a score of 1 was converted to Red. […] A listing of tested alleles, and score assignments for PD Model 1 can be found in Table 16.
as §2, §3

[3] = test system: patients treated with Methadone in the START trial; assay: PK/PD Model 3 binning vs Methadone completion; assay type: in vivo, human
Procedure: as §1
Three separate PK/PD Models were generated by combining the PK model with each of the three PD models separately as follows. For each PKPD model, the corresponding PD risk score was added to the raw PK score (bin). A total PD risk score that was negative, represents a reduction of the baseline PK score, while a total PD risk score that was positive represented an increase in the baseline PK score.
as §2, §3

[4] = test system: START trial patients; assay: Combinatorial gene modeling: composite genetic risk score (biology-based and data-based) vs non-completion
Text: We next undertook a combinatorial approach to assess whether there was a composite genetic risk score having a significant association with completion rate. Risk scores were assigned using two different models, a “biology-based” model and a “data-based” model. The biology based risk scores were assigned using the most biologically appropriate hypothesis for a given genotype or haplotype, for example, based upon the enzyme activity reported to be associated with that genotype or haplotype in the scientific literature (e.g., as shown in Table 1 above) in combination with current biological understanding of the drug including both its pharmacokinetics (how it is absorbed, distributed, metabolized and excreted) and its pharmacodynamics (how it effects the body).
In contrast, the data-based risk scores were assigned based on how the phenotype of the genotype or haplotype for each gene was associated with non-completion in the single-gene analysis above. For example, a patient may be scored 0 if his/her phenotype is reduced, 0.5 if intermediate, and 1 if high.
We then used a composite risk score, which is the sum of the individual risk scores for each gene of interest, to assess the impact of various combinations of genetic markers on the ability of the patients to complete the 24-week drug treatment regimen. The completion/non-completion was modeled using a logistic regression which included the total genetic risk score and dose-bin-category. This model assesses the effect of the total genetic risk score on the non-completion rate while adjusting for drug dose level. The likelihood of non-completion with respect to the total genetic risk score is represented by the odds ratio. If a p-value is <0.05, then it is considered that statistically significant that the non-completion is associated with the total genetic risk score.

[5] = PD Model 1, Full Sample, COMT Low Risk, SLC6A4 High Risk (Yellow)
[6] = PD Model 1, Full Sample, COMT Low Risk, SLC6A4 Normal Risk (Green)
[7] = PD Model 1, Full Sample, COMT Normal Risk, SLC6A4 High Risk (Red)
[8] = PD Model 1, Full Sample, COMT Normal Risk, SLC6A4 Normal Risk (Yellow)
[9] = PD Model 1, Full Sample, Green bin
[10] = PD Model 1, Full Sample, Red bin
[11] = PD Model 1, Full Sample, Yellow bin
[12] = PD Model 1, Sample 1, COMT Low Risk, SLC6A4 High Risk (Yellow)
[13] = PD Model 1, Sample 1, COMT Low Risk, SLC6A4 Normal Risk (Green)
[14] = PD Model 1, Sample 1, COMT Normal Risk, SLC6A4 High Risk (Red)
[15] = PD Model 1, Sample 1, COMT Normal Risk, SLC6A4 Normal Risk (Yellow)
[16] = PD Model 1, Sample 1, Green bin
[17] = PD Model 1, Sample 1, Yellow bin
[18] = PD Model 1, Sample 2, COMT Low Risk, SLC6A4 High Risk (Yellow)
[19] = PD Model 1, Sample 2, COMT Low Risk, SLC6A4 Normal Risk (Green)
[20] = PD Model 1, Sample 2, COMT Normal Risk, SLC6A4 High Risk (Red)
[21] = PD Model 1, Sample 2, COMT Normal Risk, SLC6A4 Normal Risk (Yellow)
[22] = PD Model 1, Sample 2, Green bin
[23] = PD Model 1, Sample 2, Yellow bin
[24] = PK/PD Model 3, Full Sample, Green bin, Risk Score −1.3 to 1.3
[25] = PK/PD Model 3, Full Sample, Red bin, Risk Score 2.4+
[26] = PK/PD Model 3, Full Sample, Yellow bin, Risk Score 1.4 to 2.3
[27] = PK/PD Model 3, Sample 1, Green bin, Risk Score −0.8 to 1.3
[28] = PK/PD Model 3, Sample 1, Red bin, Risk Score 2.4 to 5.1
[29] = PK/PD Model 3, Sample 1, Yellow bin, Risk Score 1.4 to 2.3
[30] = PK/PD Model 3, Sample 2, Green bin, Risk Score −1.1 to 0.8
[31] = PK/PD Model 3, Sample 2, Red bin, Risk Score 2.2 to 4.3
[32] = PK/PD Model 3, Sample 2, Yellow bin, Risk Score 0.9 to 2.1
[33] = composite genetic risk score vs non-completion, adjusted for Dose-bin, 25 gene combinations

In the case of `CCC(=O)C(CC(C)N(C)C)(c1ccccc1)c1ccccc1` (stereo not drawn) [Methadone, methadone], the Completers ([1]; Full Sample, Green bin) is reported as 181, the “Non Completers” value ([1]; Full Sample, Green bin) is reported as 11 and the Completers ([1]; Full Sample, Red bin) is reported as 33. The “Non Completers” value ([1]; Full Sample, Red bin) was 22, the Completers ([1]; Full Sample, Yellow bin) was 93 and the “Non Completers” value ([1]; Full Sample, Yellow bin) was 12. For the same compound, the Completers ([1]; Sample 1, Green bin) was 91, the “Non Completers” value ([1]; Sample 1, Green bin) was 6 and the Completers ([1]; Sample 1, Red bin) was 12. The “Non Completers” value ([1]; Sample 1, Red bin) was 8, the Completers ([1]; Sample 1, Yellow bin) was 53 and the “Non Completers” value ([1]; Sample 1, Yellow bin) was 6. For the same compound, the Completers ([1]; Sample 2, Green bin) was 94, the “Non Completers” value ([1]; Sample 2, Green bin) was 7 and the Completers ([1]; Sample 2, Red bin) was 13. The “Non Completers” value ([1]; Sample 2, Red bin) was 6, the Completers ([1]; Sample 2, Yellow bin) was 52 and the “Non Completers” value ([1]; Sample 2, Yellow bin) was 4. For the same compound, the Completers [2, 5] was 13, the “Non Completers” value [2, 5] was 1 and the Completers [2, 6] was 62. For the same compound, the “Non Completers” value [2, 6] was 4, the Completers [2, 7] was 39 and the “Non Completers” value [2, 7] was 13. The Completers [2, 8] was 193, the “Non Completers” value [2, 8] was 27 and the Completers [2, 9] was 62. The “Non Completers” value [2, 9] was 4, the “Odds Ratio for non-completion” value ([2]; PD Model 1, Full Sample, LR/HR vs. NR/NR) was 0.5499 and the “Odds Ratio for non-completion” value ([2]; PD Model 1, Full Sample, LR/NR vs. NR/HR) was 0.1935. The “Odds Ratio for non-completion” value ([2]; PD Model 1, Full Sample, LR/NR vs. NR/NR) was 0.4612, the “Odds Ratio for non-completion” value ([2]; PD Model 1, Full Sample, NR/HR vs. NR/NR) was 2.3827 and the Completers [2, 10] was 39. For the same compound, the “Non Completers” value [2, 10] was 13, the Completers [2, 11] was 206 and the “Non Completers” value [2, 11] was 28. For the same compound, the Completers [2, 12] was 8, the “Non Completers” value [2, 12] was 0 and the Completers [2, 13] was 34. The “Non Completers” value [2, 13] was 1, the Completers [2, 14] was 20 and the “Non Completers” value [2, 14] was 7. The Completers [2, 15] was 94, the “Non Completers” value [2, 15] was 12 and the Completers [2, 16] was 34. For the same compound, the “Non Completers” value [2, 16] was 1, the “Odds Ratio for non-completion” value ([2]; PD Model 1, Sample 1, LR/HR vs. NR/NR) was 0.4447 and the “Odds Ratio for non-completion” value ([2]; PD Model 1, Sample 1, LR/NR vs. NR/HR) was 0.0840. For the same compound, the “Odds Ratio for non-completion” value ([2]; PD Model 1, Sample 1, LR/NR vs. NR/NR) was 0.2304, the “Odds Ratio for non-completion” value ([2]; PD Model 1, Sample 1, NR/HR vs. NR/NR) was 2.7417 and the Completers ([2]; PD Model 1, Sample 1, Red bin) was 20. For the same compound, the “Non Completers” value ([2]; PD Model 1, Sample 1, Red bin) was 7, the Completers [2, 17] was 102 and the “Non Completers” value [2, 17] was 12. For the same compound, the Completers [2, 18] was 7, the “Non Completers” value [2, 18] was 0 and the Completers [2, 19] was 39. The “Non Completers” value [2, 19] was 2, the Completers [2, 20] was 21 and the “Non Completers” value [2, 20] was 6. The Completers [2, 21] was 92, the “Non Completers” value [2, 21] was 9 and the Completers [2, 22] was 39. The “Non Completers” value [2, 22] was 2, the “Odds Ratio for non-completion” value ([2]; PD Model 1, Sample 2, LR/HR vs. NR/NR) was 0.6491 and the “Odds Ratio for non-completion” value ([2]; PD Model 1, Sample 2, LR/NR vs. NR/HR) was 0.1795. For the same compound, the “Odds Ratio for non-completion” value ([2]; PD Model 1, Sample 2, LR/NR vs. NR/NR) was 0.5242, the “Odds Ratio for non-completion” value ([2]; PD Model 1, Sample 2, NR/HR vs. NR/NR) was 2.9206 and the Completers ([2]; PD Model 1, Sample 2, Red bin) was 21. The “Non Completers” value ([2]; PD Model 1, Sample 2, Red bin) was 6, the Completers [2, 23] was 99 and the “Non Completers” value [2, 23] was 9. The Completers [3, 24] was 150, the “Non Completers” value [3, 24] was 7 and the Completers [3, 25] was 64. For the same compound, the “Non Completers” value [3, 25] was 28, the Completers [3, 26] was 93 and the “Non Completers” value [3, 26] was 10. The Completers [3, 27] was 80, the “Non Completers” value [3, 27] was 2 and the Completers [3, 28] was 26. For the same compound, the “Non Completers” value [3, 28] was 12, the Completers [3, 29] was 50 and the “Non Completers” value [3, 29] was 6. The Completers [3, 30] was 77, the “Non Completers” value [3, 30] was 2 and the Completers [3, 31] was 24. For the same compound, the “Non Completers” value [3, 31] was 10, the Completers [3, 32] was 58 and the “Non Completers” value [3, 32] was 5. For the same compound, the “Odds Ratio for Non-Completers” value ([4]; Biology-Based, ORG4-CYP2B6-CYP2C19) was 1.38, the “Odds Ratio for Non-Completers” value ([4]; Biology-Based, ORG4-CYP2C19) was 1.53 and the “Odds Ratio for Non-Completers” value ([4]; Biology-Based, ORG4-CYP2C19-1A2) was 1.53. For the same compound, the “Odds Ratio for Non-Completers” value ([4]; Biology-Based, ORG4-CYP2C19-2C9) was 1.44, the “Odds Ratio for Non-Completers” value ([4]; Biology-Based, ORG4-CYP2C19-2D6) was 1.34 and the “Odds Ratio for Non-Completers” value ([4]; Data-Based, ORG4-CYP2B6-CYP2C19) was 1.9. The “Odds Ratio for Non-Completers” value ([4]; Data-Based, ORG4-CYP2C19) was 1.76, the “Odds Ratio for Non-Completers” value ([4]; Data-Based, ORG4-CYP2C19-1A2) was 1.46 and the “Odds Ratio for Non-Completers” value ([4]; Data-Based, ORG4-CYP2C19-2C9) was 1.77. For the same compound, the “Odds Ratio for Non-Completers” value ([4]; Data-Based, ORG4-CYP2C19-2D6) was 1.72, the “composite endpoints significant, biology-based model” value [4, 33] was 7 of 25 and the “composite endpoints significant, data-based model” value [4, 33] was 23 of 25.
